Laboratory results published in US20220315567A1 (priority 2016, published 2022).
Structures can show the parent of a compound that is named as a salt. Where two headings read alike, the source gives them in different places.

Key:
[1] = target: T1, human OPRM1 (μ, MOR) (Homo sapiens, UniProt P35372); type: cell-based; settings: for ΔRA of compound: relative activity from EC50 and Emax of β-arrestin vs cAMP, lower RA = more G-protein biased
T1 construct: host or cells: CHO-K1
Outline: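 Activity measured in cell assays for G-protein signaling and for β-arrestin recruitment. A relative activity (RA) value was derived by comparing the two readouts, taking both EC50 and Emax into account.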

[2] = target: T1, human OPRM1 (μ, MOR); test: cell-based; settings: for EC50: PathHunter human OPRM1 Arrestin CHO-K1 cell line, read-out: β-Arrestin EC50; for Emax: OPRM1, read-out: β-Arrestin Emax
Outline: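 β-Arrestin-2 recruitment was measured in PathHunter CHO-K1 cells expressing ED-tagged human OPRM1 and EA-fused arrestin. Agonist-driven recruitment restores β-galactosidase activity by enzyme fragment complementation, read by chemiluminescence.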

[3] = target: T1, human OPRM1 (μ, MOR); test: cell-based; settings: for EC50: PathHunter human OPRM1 Arrestin CHO-K1 cell line, read-out: cAMP EC50; for Emax: OPRM1, read-out: cAMP Emax
Method: G-protein signaling was measured via second messenger cAMP modulation. Detection of cAMP modulation was accomplished in the PathHunter human OPRM1 (μ, MOR) Arrestin CHO-K1 cell line using the Dynamic2 cAMP Kit from Cisbio.

[4] = healthy volunteers; cited from earlier work
[5] = patients following bunionectomy; cited from earlier work

T1 sequence (P35372 whole entry): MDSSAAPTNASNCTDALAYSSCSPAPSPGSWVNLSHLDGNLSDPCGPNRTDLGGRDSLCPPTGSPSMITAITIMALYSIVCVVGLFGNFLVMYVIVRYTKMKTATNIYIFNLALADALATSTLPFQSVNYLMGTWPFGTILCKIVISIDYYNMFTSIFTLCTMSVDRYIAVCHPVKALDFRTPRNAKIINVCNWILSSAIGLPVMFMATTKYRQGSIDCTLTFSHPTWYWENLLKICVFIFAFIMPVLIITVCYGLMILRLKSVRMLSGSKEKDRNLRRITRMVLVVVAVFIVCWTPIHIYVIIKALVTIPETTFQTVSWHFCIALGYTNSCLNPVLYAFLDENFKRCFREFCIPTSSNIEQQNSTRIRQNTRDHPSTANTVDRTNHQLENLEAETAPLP

With `CN(C)C(CNC(=O)N[C@H]1CCc2ccccc2C1)c1ccsc1` (some centres unmarked) [Compound 67] as the compound, how does the “Bias Factor (ΔRA of compound relative to ΔRA of DAMGO) × 10” value [1] read?
The value was less than −14.83.

And the ΔRA of compound [1]?
The ΔRA of compound was less than −2.96.

What about the “β-Arrestin Emax” value [2] of the same compound?
Its value is 2.6%.

And the EC50 [2]?
The EC50 was greater than 100 µM.

What about the melting point of the same compound?
The melting point was 165 to 167 °C.

What about the “cAMP Emax” value [3] of the same compound?
Its value is 50.9%.

And the EC50 [3]?
The EC50 was 0.013 µM.

For `CN(C)C(CNC(=O)N1Cc2cccc(C#N)c2C1)c1ccsc1` (centres unmarked) [Compound 44], which “Bias Factor (ΔRA of compound relative to ΔRA of DAMGO) × 10” value [1] is on record?
Its value is less than −14.83.

And the ΔRA of compound [1]?
The ΔRA of compound was less than −2.96.

What about the Emax [2] of the same compound?
Its Emax is 5.3%.

And the EC50 [2]?
The EC50 was greater than 100 µM.

What about the melting point of the same compound?
Its melting point is 159 to 161 °C.

And the Emax [3]?
The Emax was 51.4%.

What about the EC50 [3] of the same compound?
Its EC50 is 0.162 µM.

What does the source list for `CN(C(=O)OC(C)(C)C)C(CNC(=O)N1Cc2ccc(F)cc2C1)c1ccsc1` (centres unmarked) [Compound 34, tert-Butyl (2-(5-fluoroisoindoline-2-carboxamido)-1-(thiophen-3-yl)ethyl)(methyl)carbamate]?
Emax [2]: < 1%; EC50 [2]: > 100 µM; melting point: 182 to 184 °C; Emax [3]: 2.6%; EC50 [3]: > 100 µM

What does the source list for `CN(C)[C@@H](CCNC(=O)N[C@H]1CCc2ccccc2C1)c1ccsc1` [Compound 74]?
Emax [2]: < 1%; EC50 [2]: > 100 µM; melting point: 144 to 146 °C; Emax [3]: 11.2%; EC50 [3]: > 100 µM

For `CN(C)C(CNC(=O)N[C@@H]1CCc2ccccc2C1)c1ccsc1` (some centres unmarked) [Compound 66], which “Bias Factor (ΔRA of compound relative to ΔRA of DAMGO) × 10” value [1] is on record?
Its value is less than −14.83.

And the ΔRA of compound [1]?
Its ΔRA of compound is less than −2.96.

What about the melting point of the same compound?
The melting point was 164 to 166 °C.

With `CN(C)C1(CNC(=O)N[C@H]2CCc3ccccc3C2)CCCC1` [Compound 65] as the compound, how does the Emax [2] read?
Its Emax is less than 1%.

And the EC50 [2]?
Its EC50 is greater than 100 µM.

What about the melting point of the same compound?
Its melting point is 204 to 206 °C.

What about the Emax [3] of the same compound?
Its Emax is less than 10%.

What about the EC50 [3] of the same compound?
The EC50 was greater than 100 µM.

Which “on-target adverse effects (nausea, decrease in respiratory drive)” value [4] does the source give for `COc1ccsc1CNCC[C@@]1(c2ccccn2)CCOC2(CCCC2)C1` [oliceridine, N-[(3-methoxythiophen-2-yl)methyl]-2-[(9R)-9-pyridin-2-yl-6-oxaspiro[4.5]decan-9-yl]ethanamine] here?
Its value is “decreased on-target adverse effects”.

What about the level of analgesia [5] of the same compound?
Its level of analgesia is “higher level of analgesia”.

With `CN(C)C1(CNC(=O)N2Cc3ccc(F)cc3C2)CCOCC1` [Compound 61] as the compound, how does the “Bias Factor (ΔRA of compound relative to ΔRA of DAMGO) × 10” value [1] read?
The value was less than −14.83.

What about the ΔRA of compound [1] of the same compound?
The ΔRA of compound was less than −2.96.

What about the Emax [2] of the same compound?
The Emax was 14.5%.

And the EC50 [2]?
Its EC50 is greater than 100 µM.

What about the melting point of the same compound?
The melting point was 241 to 243 °C.

What about the Emax [3] of the same compound?
Its Emax is 104%.

And the EC50 [3]?
Its EC50 is 1.17 µM.

What does the source list for `CN(C)C1(CNC(=O)N[C@@H]2CCc3ccccc3C2)CCCCC1` [Compound 55]?
Bias Factor (ΔRA of compound relative to ΔRA of DAMGO) × 10 [1]: <−14.83; ΔRA of compound [1]: <−2.96; Emax [2]: < 1%; EC50 [2]: > 100 µM; melting point: 192 to 194 °C; Emax [3]: 36.6%; EC50 [3]: 2.85 µM

Which Emax [2] does the source give for `CN(C)C(CNC(=O)N1Cc2ccc(F)cc2C1)c1ccc(O)cc1` (centres unmarked) [Compound 21, N-(2-(Dimethylamino)-2-(4-hydroxyphenyl)ethyl)-5-fluoroisoindoline-2-carboxamide] here?
The Emax was less than 1%.

What about the EC50 [2] of the same compound?
The EC50 was greater than 100 µM.

And the melting point?
Its melting point is 180 to 185 °C (dec.).

What about the Emax [3] of the same compound?
Its Emax is 4.5%.

And the EC50 [3]?
The EC50 was greater than 100 µM.

Which results are given for `CN(C)[C@H](CCNC(=O)N[C@@H]1CCc2ccccc2C1)c1ccsc1` [Compound 72]?
Bias Factor (ΔRA of compound relative to ΔRA of DAMGO) × 10 [1]: −0.99; ΔRA of compound [1]: −1.58; β-Arrestin Emax [2]: 39.1%; EC50 [2]: 2.61 µM; melting point: 147 to 149 °C; cAMP Emax [3]: 111.9%; EC50 [3]: 0.197 µM

Which results are given for `CN(C)C1(CNC(=O)N2Cc3ccccc3C2)CCCCC1` [Compound 54]?
Bias Factor (ΔRA of compound relative to ΔRA of DAMGO) × 10 [1]: −3.04; ΔRA of compound [1]: −1.78; Emax [2]: 20.8%; EC50 [2]: 4.42 µM; melting point: 225 to 227 °C; Emax [3]: 113%; EC50 [3]: 0.396 µM

Which “Bias Factor (ΔRA of compound relative to ΔRA of DAMGO) × 10” value [1] does the source give for `CN(C)C(C)(C)CNC(=O)N1Cc2ccc(F)cc2C1` [Compound 62] here?
The value was less than −14.83.

What about the ΔRA of compound [1] of the same compound?
The ΔRA of compound was less than −2.96.

What about the Emax [2] of the same compound?
Its Emax is less than 1%.

And the EC50 [2]?
The EC50 was greater than 100 µM.

And the melting point?
The melting point was 200 to 202 °C.

And the Emax [3]?
The Emax was 81.8%.

What about the EC50 [3] of the same compound?
Its EC50 is 21 µM.

Which results are given for `CN(C)C1(CNC(=O)N[C@H]2CCc3ccccc3C2)CCCCC1` [Compound 56]?
Bias Factor (ΔRA of compound relative to ΔRA of DAMGO) × 10 [1]: <−14.83; ΔRA of compound [1]: <−2.96; Emax [2]: < 1%; EC50 [2]: > 100 µM; melting point: 191 to 193 °C; Emax [3]: 43.3%; EC50 [3]: 7.74 µM

Which “Bias Factor (ΔRA of compound relative to ΔRA of DAMGO) × 10” value [1] does the source give for `CN(C)C(CNC(=O)N1CCCc2cc(O)ccc21)c1ccsc1` (centres unmarked) [Compound 53] here?
Its value is −4.47.

What about the ΔRA of compound [1] of the same compound?
Its ΔRA of compound is −1.93.

What about the Emax [2] of the same compound?
Its Emax is 20.1%.

What about the EC50 [2] of the same compound?
Its EC50 is 3.79 µM.

And the melting point?
Its melting point is 163 °C (dec.).

What about the Emax [3] of the same compound?
Its Emax is 120%.

What about the EC50 [3] of the same compound?
Its EC50 is 0.267 µM.

With `CN(C)C(CNC(=O)N1Cc2cc(F)c(F)cc2C1)c1ccsc1` (centres unmarked) (as salt: hydrochloride) [Compound 6a, N-(2-(dimethylamino)-2-(thiophen-3-yl)ethyl)-5,6-difluoroisoindoline-2-carboxamide hydrochloride] as the compound, how does the melting point read?
The melting point was 210 to 212 °C.

For `CN(C)C(CNC(=O)N1Cc2ccc(O)cc2C1)c1ccc(O)cc1` (centres unmarked) (as salt: hydrobromid) [Compound 24, N-(2-(dimethylamino)-2-(4-hydroxyphenyl)ethyl)-5-hydroxyisoindoline-2-carboxamide hydrobromide], which melting point is on record?
The melting point was 185 °C (dec.).

Which melting point does the source give for `CN(C)C(CNC(=O)N1Cc2ccccc2C1)c1ccsc1` (centres unmarked) (as salt: hydrochloride) [Compound 1a, N-(2-(Dimethylamino)-2-(thiophen-3-yl)ethyl)isoindoline-2-carboxamide hydrochloride] here?
The melting point was 145 to 150 °C (dec.).

Which melting point does the source give for `CN(C)C(CNC(=O)N1Cc2ccc(F)cc2C1)c1ccccc1` (centres unmarked) (as salt: hydrochloride) [Compound 20a, N-(2-(Dimethylamino)-2-phenylethyl)-5-fluoroisoindoline-2-carboxamide hydrochloride] here?
Its melting point is 148 to 150 °C.

For `CN(C)[C@H](CCNC(=O)N[C@@H]1CCc2ccccc2C1)c1ccsc1` [Compound 71], which “Bias Factor (ΔRA of compound relative to ΔRA of DAMGO) × 10” value [1] is on record?
The value was −3.66.

What about the ΔRA of compound [1] of the same compound?
The ΔRA of compound was −1.85.

What about the “β-Arrestin Emax” value [2] of the same compound?
Its value is 10.5%.

What about the EC50 [2] of the same compound?
Its EC50 is 1.82 µM.

What about the melting point of the same compound?
Its melting point is 112 to 114 °C.

What about the “cAMP Emax” value [3] of the same compound?
The value was 71.2%.

What about the EC50 [3] of the same compound?
Its EC50 is 0.177 µM.

Which results are given for `COc1ccc(C(CNC(=O)N2CCCc3cc(F)ccc32)N(C)C)cc1` (centres unmarked) [Compound 68a]?
Bias Factor (ΔRA of compound relative to ΔRA of DAMGO) × 10 [1]: −8.36; ΔRA of compound [1]: −2.32; Emax [2]: 39.9%; EC50 [2]: 14.6 µM; melting point: 145 to 146 °C; Emax [3]: 94.6%; EC50 [3]: 0.167 µM

Which “Bias Factor (ΔRA of compound relative to ΔRA of DAMGO) × 10” value [1] does the source give for `CN(C)[C@@H](CCNC(=O)N[C@@H]1CCc2ccccc2C1)c1ccsc1` [Compound 73] here?
The value was less than −14.83.

What about the ΔRA of compound [1] of the same compound?
Its ΔRA of compound is less than −2.96.

And the Emax [2]?
Its Emax is less than 1%.

What about the EC50 [2] of the same compound?
Its EC50 is greater than 100 µM.

What about the melting point of the same compound?
The melting point was 147 to 148 °C.

And the Emax [3]?
The Emax was 13.6%.

What about the EC50 [3] of the same compound?
Its EC50 is 0.422 µM.
